Measured values reported in the supplement of paper PMC10307832.

Tests used:
Experiment in all cases: relative viability (nuclei count vs DMSO), 5 days (fraction); higher = more cells survive
[1] = compound: Cc1ccc2nc(NCCN)c3ncc(C)n3c2c1 + Nc1ncn([C@H]2C[C@H](O)[C@@H](CO)O2)c(=O)n1 [Decitabine] (partner 2 µM)
How it was run: (§1)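 After 5 days of treatment, lung cancer cells in 1536-well plates were fixed and stained in a single step (final 0.05% Triton X-100, 1% formaldehyde, 1 ug/ml Hoechst) and their nuclei counted on 4× images. Treatment had been applied by pin tool the day after seeding as one drug alone or as a fixed anchor-drug dose with five library-drug doses (not always all listed) in √10 steps. Relative viability is the nuclei count of treated wells divided by that of vehicle wells, and values are medians of duplicate plates.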

Salubrinal + OSI-027 = compound: O=C(/C=C/c1ccccc1)NC(NC(=S)Nc1cccc2cccnc12)C(Cl)(Cl)Cl [Salubrinal] + COc1cccc2cc(-c3nc([C@H]4CC[C@H](C(=O)O)CC4)n4ncnc(N)c34)[nH]c12 [OSI-027] (partner 0.5 µM)
How it was run: as §1

[2] = compound: Cc1ccc2nc(NCCN)c3ncc(C)n3c2c1 + C[C@@H](Oc1cc(-c2cnn(C3CCNCC3)c2)cnc1N)c1c(Cl)ccc(F)c1Cl [Crizotinib] (partner 1 µM)
How it was run: as §1

[3] = compound: Cc1ccc2nc(NCCN)c3ncc(C)n3c2c1 + COc1cccc2cc(-c3nc([C@H]4CC[C@H](C(=O)O)CC4)n4ncnc(N)c34)[nH]c12 [OSI-027] (partner 0.5 µM)
How it was run: as §1

| Cell Line | relative viability ([1]; first compound 0.04 µM) | relative viability ([1]; first compound 0.1265 µM) | relative viability ([1]; first compound 0.4 µM) | relative viability ([1]; first compound 1.265 µM) | relative viability ([1]; first compound 4 µM) | relative viability (Salubrinal + OSI-027; first compound 0.08 µM) | relative viability (Salubrinal + OSI-027; first compound 0.253 µM) | relative viability (Salubrinal + OSI-027; first compound 0.8 µM) | relative viability (Salubrinal + OSI-027; first compound 2.53 µM) | relative viability (Salubrinal + OSI-027; first compound 8 µM) | relative viability ([2]; first compound 0.04 µM) | relative viability ([2]; first compound 0.1265 µM) | relative viability ([2]; first compound 0.4 µM) | relative viability ([2]; first compound 1.265 µM) | relative viability ([2]; first compound 4 µM) | relative viability ([3]; first compound 0.04 µM) | relative viability ([3]; first compound 0.1265 µM) | relative viability ([3]; first compound 0.4 µM) | relative viability ([3]; first compound 1.265 µM) | relative viability ([3]; first compound 4 µM) |
| --- | --- | --- | --- | --- | --- | --- | --- | --- | --- | --- | --- | --- | --- | --- | --- | --- | --- | --- | --- | --- |
| NCI-H2023 | 0.225 | 0.227 | 0.241 | 0.256 | 0.2 | 0.442 | 0.354 | 0.406 | 0.333 | 0.268 | 0.702 | 0.652 | 0.733 | 0.767 | 0.414 | 0.51 | 0.387 | 0.489 | 0.453 | 0.369 |
| COR-L 105 | 0.758 | 0.738 | 0.722 | 0.673 | 0.632 | 0.74 | 0.632 | 0.758 | 0.735 | 0.613 | 0.797 | 0.721 | 0.887 | 0.704 | 0.422 | 0.79 | 0.753 | 0.666 | 0.691 | 0.723 |
| RERF-LC-KJ | 0.63 | 0.709 | 0.684 | 0.765 | 0.616 | 0.595 | 0.512 | 0.58 | 0.548 | 0.437 | 0.829 | 0.791 | 0.777 | 0.722 | 0.789 | 0.596 | 0.639 | 0.566 | 0.604 | 0.52 |
| LXF-289 | 0.388 | 0.409 | 0.365 | 0.353 | 0.423 | 0.784 | 0.647 | 0.953 | 0.847 | 0.69 | 0.806 | 0.834 | 0.842 | 0.857 | 0.856 | 0.898 | 0.79 | 0.901 | 0.872 | 0.776 |
| PC-14 | 0.227 | 0.237 | 0.247 | 0.179 | 0.148 | 0.966 | 0.822 | 0.98 | 0.798 | 0.616 | 1.08 | 0.862 | 0.864 | 0.901 | 0.892 | 0.882 | 0.819 | 0.979 | 0.759 | 0.388 |
| NCI-H650 | 0.332 | 0.326 | 0.31 | 0.269 | 0.331 | 0.584 | 0.554 | 0.576 | 0.629 | 0.452 | 0.855 | 0.608 | 0.718 | 0.583 | 0.672 | 0.558 | 0.585 | 0.443 | 0.538 | 0.513 |
| NCI-H1666 | 0.753 | 0.719 | 0.692 | 0.792 | 0.647 | 0.953 | 0.763 | 0.894 | 0.806 | 0.848 | 0.998 | 1.01 | 0.874 | 0.852 | 0.907 | 0.839 | 0.799 | 0.887 | 0.816 | 0.774 |
| NCI-H2085 | 0.56 | 0.556 | 0.522 | 0.534 | 0.524 | 0.793 | 0.629 | 0.848 | 0.712 | 0.717 | 1.01 | 0.77 | 0.879 | 0.848 | 0.87 | 0.839 | 0.819 | 0.658 | 0.906 | 0.742 |
| NCI-H1734 | 0.464 | 0.5 | 0.458 | 0.501 | 0.511 | 0.724 | 0.572 | 0.633 | 0.542 | 0.636 | 0.673 | 0.733 | 0.747 | 0.607 | 0.706 | 0.619 | 0.557 | 0.502 | 0.551 | 0.543 |
| NCI-H2126 | 0.6 | 0.571 | 0.62 | 0.599 | 0.563 | 0.7 | 0.721 | 0.725 | 0.695 | 0.659 | 1.04 | 0.999 | 1.09 | 1 | 1.03 | 0.724 | 0.733 | 0.661 | 0.667 | 0.646 |
| EMC-BAC-2 | 0.973 | 1.01 | 0.989 | 1.06 | 0.966 | 0.364 | 0.359 | 0.41 | 0.384 | 0.427 | 0.761 | 0.728 | 0.735 | 0.733 | 0.775 | 0.387 | 0.381 | 0.344 | 0.394 | 0.377 |
| NCI-H1993 | 0.731 | 0.468 | 0.632 | 0.606 | 0.583 | 0.58 | 0.564 | 0.509 | 0.495 | 0.584 | 0.822 | 0.896 | 0.811 | 0.812 | 0.826 | 0.521 | 0.53 | 0.544 | 0.562 | 0.508 |
| NCI-H520 | 0.488 | 0.466 | 0.439 | 0.529 | 0.503 | 0.334 | 0.22 | 0.265 | 0.307 | 0.337 | 0.725 | 0.699 | 0.761 | 0.791 | 0.639 | 0.301 | 0.23 | 0.263 | 0.237 | 0.305 |
| NCI-H647 | 0.508 | 0.362 | 0.43 | 0.421 | 0.335 | 0.76 | 0.671 | 0.6 | 0.638 | 0.604 | 1.29 | 1.03 | 1.12 | 0.93 | 0.852 | 0.566 | 0.607 | 0.637 | 0.634 | 0.719 |
| NCI-H1792 | 0.614 | 0.553 |  | 0.511 | 0.461 | 0.97 |  | 0.626 | 0.75 | 0.684 | 1.03 | 1.03 | 0.946 | 1.01 | 0.905 | 0.683 | 0.756 | 0.707 | 0.704 | 0.638 |
| SK-LU-1 | 0.672 | 0.656 | 0.744 | 0.665 | 0.69 | 0.399 | 0.286 | 0.311 | 0.358 | 0.267 | 0.926 | 0.937 | 1.01 | 0.852 | 0.83 | 0.371 | 0.369 | 0.376 | 0.376 | 0.361 |
